Test results: the supplement of paper PMC8633005

What was measured:
Test in all cases: drug sensitivity score (DSS) (DSS (unitless, 0-50 scale)); higher = more sensitive (stronger viability inhibition); extreme values may be limits of the assay
Details in all cases: 72 h; culture: 2D
[1] = tested on: Bowes
Procedure, shortened: (§1)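 A 527-compound oncology library was screened in 384-well plates against melanoma cell lines and patient-derived melanoma cultures grown in 2D, the cultures at 1000–1500 cells per well. Each compound, in DMSO or water, was applied at five concentrations over a 10,000-fold range and incubated for 72 h at 37 °C before CellTiter-Glo luminescence readout of viability. A drug sensitivity score, a modified area-under-curve measure, was calculated from curves fitted in the in-house Breeze software.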

[2] = tested on: FM-MEL-2
Procedure, shortened: as §1

[3] = tested on: FM-MEL-3
Procedure, shortened: as §1

[4] = tested on: FM-MEL-6
Procedure, shortened: as §1

[5] = tested on: SK-MEL-28
Procedure, shortened: as §1

[6] = tested on: SK-MEL-2
Procedure, shortened: as §1

[7] = tested on: WM165
Procedure, shortened: as §1

[8] = tested on: WM852
Procedure, shortened: as §1

Structure (SMILES)	drug sensitivity score [1]	drug sensitivity score [2]	drug sensitivity score [3]	drug sensitivity score [4]	drug sensitivity score [5]	drug sensitivity score [6]	drug sensitivity score [7]	drug sensitivity score [8]
NC(=O)/C(=C/n1cnc(-c2cc(C(F)(F)F)cc(C(F)(F)F)c2)n1)c1cncnc1 [Eltanexor]	14.8	9.5	18.4	11.8	14	15.2	19.3	11.2
CC(C)(O)CNc1nc(Nc2ccnc(C(F)(F)F)c2)nc(-c2cccc(C(F)(F)F)n2)n1 [Enasidenib]	0	3.1	0	0	0	1.9	0	0
COC(=O)N[C@@H](C)CNc1nccc(-c2cn(C(C)C)nc2-c2cc(Cl)cc(NS(C)(=O)=O)c2F)n1 [Encorafenib]	0.5	1.3	1.9	0	19.6	1.1	19.2	1.4
C[C@@H]1CN(C(=O)c2ccc(NC(=O)c3cc(O[C@H](C)c4c(Cl)ccc(F)c4Cl)c(N)nn3)cc2)C[C@H](C)N1 [Ensartinib]	1.6	0.5	2.6	1.5	0	0	0.7	0.4
Nc1ccccc1NC(=O)c1ccc(CNC(=O)OCc2cccnc2)cc1 [Entinostat]	1.8	4.5	6.6	8.2	8.7	7.9	11.4	0.1
c1cn2cc(-c3ccc4cn[nH]c4c3)nc(Nc3ccc(N4CCOCC4)cc3)c2n1 [Entospletinib]	0	6.7	0	0	0	0	0	0
CN1CCN(c2ccc(C(=O)Nc3n[nH]c4ccc(Cc5cc(F)cc(F)c5)cc34)c(NC3CCOCC3)c2)CC1 [Entrectinib]	0	0	0	0	0	0	0	0
CNC(=O)c1ccc(N2C(=S)N(c3ccc(C#N)c(C(F)(F)F)c3)C(=O)C2(C)C)cc1F [Enzalutamide]	0.1	0.2	0.3	0	0	0	0	0.9
Cn1cc(C2=C(c3cn(C4CCN(Cc5ccccn5)CC4)c4ccccc34)C(=O)NC2=O)c2ccccc21 [Enzastaurin]	0	1.7	3.7	0	0	0.2	0	2.1
NS(=O)(=O)NCCNc1nonc1/C(=N/O)Nc1ccc(F)c(Br)c1 [Epacadostat]	0	0.5	1	0.5	0	0	0	0.7
COc1cccc2c1C(=O)c1c(O)c3c(c(O)c1C2=O)C[C@@](O)(C(=O)CO)C[C@@H]3O[C@H]1C[C@H](N)[C@@H](O)[C@H](C)O1 [Epirubicin]	4	6	7.6	8.6	7.4	5.3	14.3	4.6
CCOc1ccccc1-n1c(C(C)N2CCN(C(=O)COc3ccc(Cl)cc3)CC2)nc2ccccc2c1=O (stereo not given) [Erastin]	6.2	7.6	5.8	0	0	1.3	10.8	12
COc1cc(OC)cc(N(CCNC(C)C)c2ccc3ncc(-c4cnn(C)c4)nc3c2)c1 [Erdafitinib]	2.4	0	0	0	0	0	0	0.8
C=C1C[C@@H]2CC[C@@]34C[C@H]5O[C@H]6[C@@H](O3)[C@H]3O[C@H](CC[C@@H]3O[C@H]6[C@H]5O4)CC(=O)C[C@@H]3[C@@H](OC)[C@@H](C[C@H](O)CN)O[C@H]3C[C@H]3O[C@@H](CC[C@@H]1O2)C[C@@H](C)C3=C [Eribulin]	23.6	4.8	9.4	18.5	11.2	20.4	22.5	22.8
C#Cc1cccc(Nc2ncnc3cc(OCCOC)c(OCCOC)cc23)c1 [Erlotinib]	1.8	4.4	3.5	1.9	1.1	0	3.9	2.5
COc1cc([C@@H]2c3cc4c(cc3[C@@H](O[C@@H]3O[C@@H]5CO[C@@H](C)O[C@H]5[C@H](O)[C@H]3O)[C@H]3COC(=O)[C@H]23)OCO4)cc(OC)c1O [Etoposide]	2.7	2.9	4	5.7	5.9	2.6	19.1	0.4
CO[C@H]1C[C@@H]2CC[C@@H](C)[C@@](O)(O2)C(=O)C(=O)N2CCCC[C@H]2C(=O)O[C@H]([C@H](C)C[C@@H]2CC[C@@H](OCCO)[C@H](OC)C2)CC(=O)[C@H](C)/C=C(\C)[C@@H](O)[C@@H](OC)C(=O)[C@H](C)C[C@H](C)/C=C/C=C/C=C/1C [Everolimus]	0	2.2	4.7	3.6	3	0	4.9	0
C=C1C[C@@H]2[C@H](CC[C@]3(C)C(=O)CC[C@@H]23)[C@@]2(C)C=CC(=O)C=C12 [Exemestane]	1.4	0	0	0	0	0	0.2	0.3
CCn1c(=O)c(-c2ccc(Cl)cc2Cl)cc2cnc(Nc3ccc(N4CCNCC4)c(F)c3)nc21 [FRAX486]	9.7	0	0	1.9	3.2	0.5	7.6	1.4
Cc1cnc(Nc2ccc(OCCN3CCCC3)cc2)nc1Nc1cccc(S(=O)(=O)NC(C)(C)C)c1 [Fedratinib]	10.9	3.6	6.7	3.1	3	4.5	9.1	6.8

Structure (SMILES)	drug sensitivity score [1]	drug sensitivity score [2]	drug sensitivity score [3]	drug sensitivity score [4]	drug sensitivity score [5]	drug sensitivity score [6]	drug sensitivity score [7]	drug sensitivity score [8]
CON(C)C(=O)N1N=C(c2cc(F)ccc2F)S[C@@]1(CCCN)c1ccccc1 [Filanesib]	12.5	4.7	10	11.3	4.5	16.5	17.4	23.3
O=C(Nc1nc2cccc(-c3ccc(CN4CCS(=O)(=O)CC4)cc3)n2n1)C1CC1 [Filgotinib]	4.5	0	0	4.5	0	0	0.7	5.9
CC(C)(C)NC(=O)[C@H]1CC[C@H]2[C@@H]3CC[C@H]4NC(=O)C=C[C@]4(C)[C@H]3CC[C@]12C [Finasteride]	0	0	0	0	0	0	0	0
CCCCCCCCc1ccc(CCC(N)(CO)CO)cc1 [Fingolimod]	8.5	6.2	7.5	6.4	6.2	5.7	6.3	7
O=c1[nH]c(=O)n([C@H]2C[C@H](O)[C@@H](CO)O2)cc1F [Floxuridine]	15.7	0.4	0	1.2	8	0	18.4	4.9
Nc1nc(F)nc2c1ncn2[C@@H]1O[C@H](CO)[C@@H](O)[C@@H]1O [Fludarabine]	0	1.4	0.6	3.1	1.1	4.7	0	0
O=c1[nH]cc(F)c(=O)[nH]1 [Fluorouracil]	0	1.7	0.4	0.7	0.7	0	2.3	0
CC(C)C(=O)Nc1ccc([N+](=O)[O-])c(C(F)(F)F)c1 [Flutamide]	0.1	0	0.5	0	0	0	0	0.5
COc1cc2c(Oc3ccc(NC(=O)C4(C(=O)Nc5ccc(F)cc5)CC4)cc3F)ccnc2cc1OCCCN1CCOCC1 [Foretinib]	5.1	3.1	3.2	0.9	2.6	0	2.6	2.2
COc1cc(Nc2ncc(F)c(Nc3ccc4c(n3)N(COP(=O)(O)O)C(=O)C(C)(C)O4)n2)cc(OC)c1OC [Fostamatinib]	2	4.6	2.1	1.9	2	0	3.5	0.5
C[C@]12CC[C@@H]3c4ccc(O)cc4C[C@@H](CCCCCCCCC[S+]([O-])CCCC(F)(F)C(F)(F)F)[C@H]3[C@@H]1CC[C@@H]2O (stereo not given in full) [Fulvestrant]	0	0	0	0	0	0	0	0
CC1(C)OCCn2c1nc1c(N3CCOCC3)nc(-c3cnc(N)nc3)nc12 [GDC-0084]	9.4	9.6	8.4	7.8	7.7	8.1	8.4	7.7
O=C(NOCCO)c1ccc2cncn2c1Nc1ccc(I)cc1F [GDC-0623]	1.4	16.5	8.9	6.2	8.9	16.8	7.6	2.4
C[C@H]1CN(C2COC2)CCN1c1ccc(Nc2cc(-c3ccnc(N4CCn5c(cc6c5CC(C)(C)C6)C4=O)c3CO)cn(C)c2=O)nc1 [GDC-0853]	0	0	0	0	0	0	0	0
O[C@H](C[C@H]1c2c(F)cccc2-c2cncn21)[C@H]1CC[C@H](O)CC1 [GDC-0919]	0.3	0.4	0.7	1.1	0.5	0	0	1.2
CNc1nc(Nc2cn(C(C)(C)C#N)nc2C)ncc1C(F)(F)F [GNE-0877]	0	0	0	0	0	0	0	0
CCNc1nc(Nc2cc(F)c(C(=O)N3CCOCC3)cc2OC)ncc1C(F)(F)F [GNE-7915]	0	0	2.6	0	0	0	0	0
CCCc1cc(C)[nH]c(=O)c1CNC(=O)c1cc(-c2ccnc(N3CCN(C)CC3)c2)cc2c1cnn2C(C)C [GSK343]	0	0.1	0.2	0	0	0.1	0	0
CCCOc1ccn2c(C(C)=O)cc(-c3ccccc3S(C)(=O)=O)c2c1 [GSK2801]	0.7	0.1	0	0	0	0	0	0
CCOC(=O)CCNc1cc(N2CCc3ccccc3CC2)nc(-c2ccccn2)n1 [GSK-J4]	11.2	1	20.9	1.3	0	0	3.2	2.3
